Converted amounts (≈) assume the structure as drawn. Peptide text beside a SMILES is read from it.
Key:
S. aureus DSM 6247 = format: cell-based, Staphylococcus aureus
Procedure: (§1) The minimum inhibitory concentrations (MIC) of the peptides were determined in a double assay of triplicates using a positive control sample (gentamycin) and a negative control sample (0.9% NaCl solution), according to a modified protocol from Wiegand et al. (Wiegand, 2008).
(§2) For this purpose, the peptides were dissolved in water and were diluted in a double dilution series with 1/8 MH (eight-fold diluted Mueller-Hinton-Medium—2.6 g/L, Merck) in sterile 96-well, plates (Greiner Bio-One GmbH) in twelve dilution steps from 128 μg/mL to 62.5 ng/mL. Overnight cultures were adjusted using ⅛ MHB to approximately 1.5×10^7 colony forming units per mL. Of these, 50 μL of peptide solution per well was mixed with 50 μL bacteria solution each to obtain an initial concentration of […] bacteria per well. After 20 hours of incubation at 37′C, the absorption was determined at 595 nm (microplate reader, Wallac Victor3, Perkin Elmer). The minimum inhibitory concentration was identified as the lowest peptide concentration at which no bacterial growth could be detected.
(§3) In the experiment, the antibacterial activity of the peptides according to the invention in relation to the following bacterial strains was analyzed: Pseudomonas aeruginosa PAO1 (wt strain), Pseudomonas aeruginosa DSM 9644, Staphylococcus aureus DSM 1104/ATCC 25923, Staphylococcus aureus ATCC 6247, Escherichia coli UB 1005 (F—, nalA37, metB1) and Escherichia coli ATCC25922.

[1] = system: Escherichia coli ATCC25922; format: cell-based
[2] = system: Pseudomonas aeruginosa PAO1 (wt strain); format: cell-based; conditions: for Improvement over Native Sequence (SEQ No. 2) P. aeruginosa PAO1 wt: fold, from MIC in 1/8 MHB
Procedure: as §1, §2, §3

[3] = system: Staphylococcus aureus DSM 1104/ATCC 25923; format: cell-based; conditions: for MIC S. aureus ATCC 25923 / MIC S. aureus DSM 1104/ATCC 25923: DSM 1104; for Improvement over Native Sequence (SEQ No. 2) S. aureus ATCC 25923: fold, from MIC in 1/8 MHB
Procedure: as §1, §2, §3

[4] = system: Pseudomonas aeruginosa DSM 9644; format: cell-based
Procedure: as §1
[…] Overnight cultures were adjusted using ⅛ MHB to approximately 1.5×10^7 colony forming units per mL. Of these, 50 μL of peptide solution per well was mixed with 50 μL bacteria solution each to obtain an initial concentration of […] bacteria per well. After 20 hours of incubation at 37′C, the absorption was determined at 595 nm (microplate reader, Wallac Victor3, Perkin Elmer). The minimum inhibitory concentration was identified as the lowest peptide concentration at which no bacterial growth could be detected.
as §3

Escherichia coli UB 1005 = assay: Minimum inhibitory concentration (MIC), broth microdilution; format: cell-based; conditions: for MIC E. coli UB1005: 1/8 MHB, Table 4; for Improvement over Native Sequence (SEQ No. 2) E. coli UB1005: fold, from MIC in 1/8 MHB
Procedure: as §1, §2, §3

| SMILES | MIC S. aureus DSM 6247 (S. aureus DSM 6247) [µg/mL] | MIC E. coli ATCC 25922 [1] [µg/mL] | MIC P. aeruginosa PAO1 wt [2] [µg/mL] | Improvement over Native Sequence (SEQ No. 2) P. aeruginosa PAO1 wt [2] | MIC S. aureus ATCC 25923 [3] [µg/mL] | MIC S. aureus DSM 1104/ATCC 25923 [3] [µg/mL] | Improvement over Native Sequence (SEQ No. 2) S. aureus ATCC 25923 [3] | MIC P. aeruginosa PAO DSM 9644 [4] [µg/mL] | MIC E. coli UB1005 (Escherichia coli UB 1005) [µg/mL] | Improvement over Native Sequence (SEQ No. 2) E. coli UB1005 (Escherichia coli UB 1005) |
| --- | --- | --- | --- | --- | --- | --- | --- | --- | --- | --- |
| CC[C@H](C)[C@H](NC(=O)[C@H](Cc1ccc(O)cc1)NC(=O)[C@@H](NC(=O)[C@@H]1CCCN1C(=O)[C@H](CCCNC(=N)N)NC(=O)[C@H](CC(N)=O)NC(=O)[C@H](CC(N)=O)NC(=O)CN)C(C)C)C(=O)N1CCC[C@H]1C(=O)N[C@@H](CCC(N)=O)C(=O)N1CCC[C@H]1C(=O)N[C@@H](CCCNC(=N)N)C(=O)N1CCC[C@H]1C(=O)N1CCC[C@H]1C(=O)N[C@@H](Cc1c[nH]cn1)C(=O)N1CCC[C@H]1C(=O)N[C@@H](CCCNC(=N)N)C(=O)N[C@@H](CC(C)C)C(=O)O [compound 2] (H-GNNRPVYIPQPRPPHPRL-OH; N-terminus assumed) | 256 (≈ 121 µM) | 2 (≈ 0.949 µM) | 500 (≈ 237 µM) | 1 | >125 | >125 | 1 | >256 | 5 (≈ 2.37 µM) | 1 |
| CC[C@H](C)[C@H](NC(=O)[C@H](Cc1ccc(O)cc1)NC(=O)[C@@H](NC(=O)[C@@H]1CCCN1C(=O)[C@H](CCCNC(=N)N)NC(=O)[C@H](CC(N)=O)NC(=O)[C@H](Cc1c[nH]c2ccccc12)NC(=O)CN)C(C)C)C(=O)N1CCC[C@H]1C(=O)N[C@@H](CCCNC(=N)N)C(=O)N1CCC[C@H]1C(=O)N[C@@H](CCCNC(=N)N)C(=O)N[C@@H](CCCNC(=N)N)C(=O)N1CCC[C@H]1C(=O)N[C@@H](Cc1c[nH]cn1)C(=O)N1CCC[C@H]1C(=O)N[C@@H](CCCNC(=N)N)C(=O)N[C@@H](CC(C)C)C(N)=O [compound 50] (H-GWNRPVYIPRPRRPHPRL-NH2; N-terminus assumed) | 2 (≈ 0.882 µM) | 8 (≈ 3.53 µM) | 32 (≈ 14.1 µM) | 16 | 2 (≈ 0.882 µM) | 2 (≈ 0.882 µM) | 128 | 32 (≈ 14.1 µM) | 2.5 (≈ 1.1 µM) | 2 |
| CC[C@H](C)[C@H](NC(=O)[C@H](Cc1ccc(O)cc1)NC(=O)[C@@H](NC(=O)[C@@H]1CCCN1C(=O)[C@H](CCCNC(=N)N)NC(=O)[C@H](CC(N)=O)NC(=O)[C@H](Cc1c[nH]c2ccccc12)NC(=O)CN)C(C)C)C(=O)N1CCC[C@H]1C(=O)N[C@@H](CCC(N)=O)C(=O)N1CCC[C@H]1C(=O)N[C@@H](CCCNC(=N)N)C(=O)N[C@@H](CCCNC(=N)N)C(=O)N1CCC[C@H]1C(=O)N[C@@H](Cc1c[nH]cn1)C(=O)N1CCC[C@H]1C(=O)N[C@@H](CCCNC(=N)N)C(=O)N[C@@H](CC(C)C)C(N)=O [compound 52] (H-GWNRPVYIPQPRRPHPRL-NH2; N-terminus assumed) | 2 (≈ 0.893 µM) | 16 (≈ 7.15 µM) | 64 (≈ 28.6 µM) | 8 | 4 to 8 | 4 to 8 | 31-64 | 64 (≈ 28.6 µM) | 5 (≈ 2.23 µM) | 1 |
| CC[C@H](C)[C@H](NC(=O)[C@H](Cc1ccc(O)cc1)NC(=O)[C@@H](NC(=O)[C@@H]1CCCN1C(=O)[C@H](CCCNC(=N)N)NC(=O)[C@H](CC(N)=O)NC(=O)[C@H](Cc1c[nH]c2ccccc12)NC(=O)CN)C(C)C)C(=O)N1CCC[C@H]1C(=O)N[C@@H](CCCNC(=N)N)C(=O)N1CCC[C@H]1C(=O)N[C@@H](CCCNC(=N)N)C(=O)N1CCC[C@H]1C(=O)N1CCC[C@H]1C(=O)N[C@@H](Cc1c[nH]cn1)C(=O)N1CCC[C@H]1C(=O)N[C@@H](CCCNC(=N)N)C(=O)N[C@@H](CC(C)C)C(N)=O [compound 63] (H-GWNRPVYIPRPRPPHPRL-NH2; N-terminus assumed) |  |  | 16 to 32 | 16-32 | 16 (≈ 7.25 µM) |  | 16 |  |  | 8 |
| CC[C@H](C)[C@H](NC(=O)[C@H](Cc1ccc(O)cc1)NC(=O)[C@@H](NC(=O)[C@@H]1CCCN1C(=O)[C@H](CCCNC(=N)N)NC(=O)[C@H](CC(N)=O)NC(=O)[C@H](CC(N)=O)NC(=O)CN)C(C)C)C(=O)N1CCC[C@H]1C(=O)N[C@@H](CCCNC(=N)N)C(=O)N1CCC[C@H]1C(=O)N[C@@H](CCCNC(=N)N)C(=O)N[C@@H](CCCNC(=N)N)C(=O)N1CCC[C@H]1C(=O)N[C@@H](Cc1c[nH]cn1)C(=O)N1CCC[C@H]1C(=O)N[C@@H](CCCNC(=N)N)C(=O)N[C@@H](CC(C)C)C(N)=O [compound 64] (H-GNNRPVYIPRPRRPHPRL-NH2; N-terminus assumed) | 2 (≈ 0.911 µM) | 8 (≈ 3.65 µM) | 64 (≈ 29.2 µM) | 8 | 4 (≈ 1.82 µM) | 4 (≈ 1.82 µM) | 64 | 32 (≈ 14.6 µM) | 2.5 (≈ 1.14 µM) | 2 |
| CC[C@H](C)[C@H](NC(=O)[C@H](Cc1ccc(O)cc1)NC(=O)[C@@H](NC(=O)[C@@H]1CCCN1C(=O)[C@H](CCCNC(=N)N)NC(=O)[C@H](CC(N)=O)NC(=O)[C@H](CC(N)=O)NC(=O)CN)C(C)C)C(=O)N1CCC[C@H]1C(=O)N[C@@H](CCC(N)=O)C(=O)N1CCC[C@H]1C(=O)N[C@@H](CCCNC(=N)N)C(=O)N1CCC[C@H]1C(=O)N1CCC[C@H]1C(=O)N[C@@H](Cc1c[nH]cn1)C(=O)N1CCC[C@H]1C(=O)N[C@@H](CCCNC(=N)N)C(=O)N[C@@H](CC(C)C)C(N)=O [compound 90] (H-GNNRPVYIPQPRPPHPRL-NH2; N-terminus assumed) | 64 (≈ 30.4 µM) | 2 (≈ 0.949 µM) | 250 (≈ 119 µM) | 2 | >125 | >125 |  |  | 1.25 (≈ 0.593 µM) | 4 |
| CC[C@H](C)[C@H](NC(=O)[C@H](Cc1ccc(O)cc1)NC(=O)[C@@H](NC(=O)[C@@H]1CCCN1C(=O)[C@H](CC(=O)O)NC(=O)[C@H](CC(N)=O)NC(=O)[C@H](CC(N)=O)NC(=O)CN)C(C)C)C(=O)N1CCC[C@H]1C(=O)N[C@@H](CCC(N)=O)C(=O)N1CCC[C@H]1C(=O)N[C@@H](CCCNC(=N)N)C(=O)N1CCC[C@H]1C(=O)N1CCC[C@H]1C(=O)N[C@@H](Cc1c[nH]cn1)C(=O)N1CCC[C@H]1C(=O)N[C@@H](CCCNC(=N)N)C(=O)N[C@@H](CC(C)C)C(N)=O [compound 91] (H-GNNDPVYIPQPRPPHPRL-NH2; N-terminus assumed) |  |  | 121.0 (≈ 58.6 µM) | 4 | >60.5 |  |  |  | >19.4 | <0.25 |

Source: patent US9556228B2 (Universitaet Leipzig, priority 2011, dated 2017)
